Key:
[1] = target: T1, steroid sulfatase in human skin homogenate (Homo sapiens, UniProt P08842); assay: Assay Using Human Skin Homogenate ([3H]DHEAS cleavage); assay type: biochemical; conditions: human cadaver skin homogenate; DHEAS substrate; 18 hrs at 37° C.
T1 construct: Frozen specimens of human cadaver skin; from tissue; host or cells: human cadaver skin, minced and suspended in Triton X-100 buffer
T1 sequence (P08842 22-583): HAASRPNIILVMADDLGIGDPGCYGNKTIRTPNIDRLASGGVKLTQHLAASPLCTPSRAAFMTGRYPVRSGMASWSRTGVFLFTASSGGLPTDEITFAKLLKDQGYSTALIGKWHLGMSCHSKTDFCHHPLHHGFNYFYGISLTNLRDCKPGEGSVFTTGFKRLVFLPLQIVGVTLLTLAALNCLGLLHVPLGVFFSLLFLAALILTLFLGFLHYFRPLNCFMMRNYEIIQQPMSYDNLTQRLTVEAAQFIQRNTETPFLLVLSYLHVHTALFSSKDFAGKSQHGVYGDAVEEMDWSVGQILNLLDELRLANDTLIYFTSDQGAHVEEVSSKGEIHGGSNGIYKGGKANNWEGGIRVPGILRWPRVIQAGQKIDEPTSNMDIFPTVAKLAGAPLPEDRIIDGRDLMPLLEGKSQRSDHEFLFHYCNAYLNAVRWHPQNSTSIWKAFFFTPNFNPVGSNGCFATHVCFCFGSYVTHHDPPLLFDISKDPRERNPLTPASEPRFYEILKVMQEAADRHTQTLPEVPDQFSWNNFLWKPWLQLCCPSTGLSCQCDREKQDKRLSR
Procedure: Frozen specimens of human cadaver skin (about 100 mg per sample) are minced Into small pieces (about 1×1 mm) using sharp scissors. The pieces obtained are suspended in ten volumes (w/w) of buffer (20 mM Tris-HCl, pH 7.5), containing 0.1% Triton X-100. Test compounds (e.g. compounds of the present invention) are added at graded concentrations from stock solutions In ethanol or DMSO. Second, DHEAS as the substrate is added (1 μC/ml [^3H]DHEAS, specific activity: about 60 Ci/mmol, and 20 μM unlabeled DHEAS).
Samples are incubated for 18 hrs at 37° C. At the end of the Incubation period, 50 μl of 1 M Tris, pH 10.4 and 3 ml of toluene are added. A 1-ml aliquot of the organic phase is removed and subjected to liquid scintillation counting. The determined dpm-values in the aliquots are converted to nmol of DHEA cleaved per g of skin per hour.

[2] = target: T2, purified human steroid sulfatase (Homo sapiens, UniProt P08842); assay: Assay of Human Steroid Sulfatase (4-methylumbelliferyl sulfate cleavage, fluorescence); assay type: biochemical; conditions: purified human placental enzyme; 4-methylumbelliferyl sulfate substrate; 37° C., 1 hour
T2 construct: Human placenta is obtained freshly after delivery; from tissue; host or cells: human placenta (microsomes, Triton X-100 extract, chromatographically purified)
T2 sequence (P08842 22-583): T1 sequence (P08842 22-583)
Procedure: Human placenta is obtained freshly after delivery and stripped of membranes and connective tissues. For storage, the material is frozen at −70° C. After thawing, all further steps are carried out at 4° C., while pH values are adjusted at 20° C. 400 g of the tissue is homogenized in 1.2 l of buffer A (50 mM Tris-HCl, pH 7.4, 0.25 M sucrose). The homogenate obtained is centrifuged at 10,000×g for 45 minutes. The supernatant is set aside and the pellet obtained is re-homogenized in 500 ml of buffer A. After centrifugation, the two supernatants obtained are combined and subjected to ultracentrifugation (100,000×g, 1 hour). The pellet obtained is resuspended in buffer A and centrifugation is repeated. The pellet obtained is suspended in 50 ml of 50 mM Tris-HCl, pH 7.4 and stored at −20° C. until further work-up. […]
It is known that purified human steroid sulfatase not only is capable to cleave steroid sulfates, but also readily cleaves aryl sulfates such as 4-methylumbelliferyl sulfate which is used in the present test system as an activity indicator. […]
Plates are incubated at 37° C. for 1 hour. […] Fluorescence intensity is determined in a Titertek Fluoroskan. […]
[formula] wherein I100 is the intensity observed in the absence of inhibitor and s is a slope factor. Estrone sulfamate is used as a reference compound and its IC50 value is determined in parallel to all other test compounds. […]

| Compound | IC50 [1] | melting point | IC50 [2] |
| --- | --- | --- | --- |
| NC(=O)c1ccc(C(F)(F)F)cc1N1CCC(NS(=O)(=O)NC(=O)c2cc(C(F)(F)F)cc(C(F)(F)F)c2)CC1 [Example 1, N-[[4-[1-(2-Aminocarbonyl-5-trifluoromethyl-phenyl)]-piperidinyl]-amino]-sulfonyl-3,5-bis-trifluoromethyl-benzamide] | 30 to 270 nM | 192 to 195 °C |  |
| CC12CCC3c4ccc(OS(N)(=O)=O)cc4CCC3C1CCC2=O (stereo not drawn) [estrone sulfamate] |  |  | ~60 nM |

Reference: patent publication US7439362B2, “Piperazinyl-or piperidinylamine-sulfamic acid amides as inhibitors of steroid sulfatase” (Novartis AG, priority 2002, dated 2008)
